For the assay, the target named is T1, TGF-beta receptor type-1 (Homo sapiens, UniProt P36897).
T1 sequence (P36897 whole entry): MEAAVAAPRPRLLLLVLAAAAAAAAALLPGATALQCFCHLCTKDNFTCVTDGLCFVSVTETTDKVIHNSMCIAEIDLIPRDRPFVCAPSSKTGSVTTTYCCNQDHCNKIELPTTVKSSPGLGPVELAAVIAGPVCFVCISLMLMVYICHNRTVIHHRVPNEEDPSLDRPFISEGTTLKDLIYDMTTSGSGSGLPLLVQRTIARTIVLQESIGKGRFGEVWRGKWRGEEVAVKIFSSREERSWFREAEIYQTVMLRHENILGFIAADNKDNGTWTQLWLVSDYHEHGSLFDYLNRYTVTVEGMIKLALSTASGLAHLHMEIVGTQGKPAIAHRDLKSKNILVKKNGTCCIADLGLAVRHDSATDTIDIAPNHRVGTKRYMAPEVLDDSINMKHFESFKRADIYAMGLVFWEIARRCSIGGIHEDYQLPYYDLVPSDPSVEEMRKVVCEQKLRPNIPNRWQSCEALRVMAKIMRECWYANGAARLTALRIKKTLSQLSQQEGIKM
As to the kind of experiment: Enzymatic Activity Assay. As to the method: The enzymatic activity of compounds of the present invention was monitored measuring the formation of ADP using the ADP-GLO Kinases assay. Following the incubation of the purified enzyme, a substrate and ATP, the produced ADP was converted into ATP, which in turn was converted into light by Ultra-Glo Luciferase. The luminescent signal positively correlated with ADP amount and kinase activity. […] All reactions/incubations were performed at 25° C. Compound and ALK5 kinase were mixed and incubated for 15 mins. […] After an incubation of 150 min, the reaction was stopped, and ADP production detected with ADP-Glo kit according to manufacturer's indications. The assay was performed in 384-well format and was validated using a selection of reference compounds that was tested in 11 point concentration-response curve.

SMILES strings stand for the structures.

As usually defined, the IC50 is the concentration that gives 50% inhibition. Read a high IC50 as lower potency.

Turning to `O=C(CCN(C1COC1)C1COC1)Nc1cc(N2CCOc3cnc(-c4cc(Cl)ccc4F)cc32)ccn1` [US20240116947, Example 21], the IC50 was less than 1 nM.

The values are drawn from BindingDB's records for patent US20240116947 (Chiesi Farmaceutici, 2024).
